Measurements published in the NIST ThermoML archive (doi:10.1016/j.fluid.2014.11.026).
“And” between values parts separate entries of the source, which are not always exact repeats. Identical values can stand only once.

Conditions: Liquid, Closed cell (Static) method

C=CC(C)(O)CCC=C(C)C (stereo not drawn) [3,7-dimethyl-1,6-octadien-3-ol]
Conditions | vapor or sublimation pressure
284.62 K | 0.006422 kPa
286.91 K | 0.008001 kPa
289.26 K | 0.01007 kPa
291.61 K | 0.01262 kPa
294.02 K | 0.01583 kPa
296.39 K | 0.01969 kPa and 0.01967 kPa
298.77 K | 0.0242 kPa
301.14 K | 0.02977 kPa
301.2 K | 0.02999 kPa
303.59 K | 0.03677 kPa
305.95 K | 0.04473 kPa
305.99 K | 0.04494 kPa
308.38 K | 0.05475 kPa
310.74 K | 0.0661 kPa
310.78 K | 0.06649 kPa
313.18 K | 0.08076 kPa
316.23 K | 0.1024 kPa
321.01 K | 0.1464 kPa
325.83 K | 0.2062 kPa
330.68 K | 0.2877 kPa
335.48 K | 0.394 kPa
340.29 K | 0.5345 kPa
342.71 K | 0.6231 kPa
345.69 K | 0.7489 kPa
348.12 K | 0.8693 kPa
350.51 K | 0.9921 kPa
352.9 K | 1.136 kPa

CCCCC(=O)CCCC [5-nonanone]
Conditions | vapor or sublimation pressure [kPa]
283.83 K | 0.02528
283.85 K | 0.02535
286.19 K | 0.03083
288.55 K | 0.03722
290.9 K | 0.04494
293.32 K | 0.05439
293.35 K | 0.0544
295.75 K | 0.06539
298.1 K | 0.07793
298.12 K | 0.0783
300.56 K | 0.09349
302.92 K | 0.1107
302.94 K | 0.111
305.38 K | 0.1321
307.75 K | 0.1553
307.77 K | 0.1559
310.19 K | 0.1839
312.99 K | 0.2228
313.02 K | 0.2225
315 K | 0.2527
315.38 K | 0.2591
317.8 K | 0.3037
317.81 K | 0.3041
320.16 K | 0.3527
320.18 K | 0.3545
322.58 K | 0.4099
322.62 K | 0.4118
324.99 K | 0.476
325.05 K | 0.4746
327.44 K | 0.5474
327.49 K | 0.5494
329.9 K | 0.6318
329.95 K | 0.638
332.32 K | 0.7257
332.35 K | 0.7296
334.71 K | 0.8311
334.74 K | 0.8375
337.13 K | 0.9562
337.15 K | 0.9511

CC(=O)CCC=C(C)C [6-methyl-5-hepten-2-one]
Conditions | vapor or sublimation pressure
283.85 K | 0.05465 kPa
283.86 K | 0.05482 kPa and 0.05462 kPa
283.92 K | 0.05498 kPa
286.18 K | 0.06551 kPa
286.23 K | 0.06608 kPa
286.24 K | 0.06599 kPa
288.57 K | 0.07931 kPa
288.59 K | 0.07922 kPa
288.61 K | 0.07945 kPa
288.69 K | 0.07994 kPa
290.97 K | 0.09477 kPa
291 K | 0.09535 kPa
291.02 K | 0.09517 kPa
293.47 K | 0.1142 kPa
293.49 K | 0.1148 kPa
295.81 K | 0.1358 kPa
295.85 K | 0.1362 kPa
295.88 K | 0.1365 kPa
298.28 K | 0.1619 kPa
298.31 K | 0.1623 kPa
300.61 K | 0.1903 kPa
300.65 K | 0.1915 kPa
300.69 K | 0.1919 kPa
303.12 K | 0.2264 kPa
303.15 K | 0.2273 kPa
305.45 K | 0.2654 kPa
305.48 K | 0.2664 kPa
305.54 K | 0.2673 kPa
307.99 K | 0.3137 kPa
308.02 K | 0.3147 kPa
310.3 K | 0.3637 kPa
310.36 K | 0.3668 kPa
310.42 K | 0.3665 kPa
312.88 K | 0.4306 kPa
312.9 K | 0.4306 kPa
315.16 K | 0.4939 kPa
315.23 K | 0.4983 kPa
315.28 K | 0.4979 kPa
317.72 K | 0.5789 kPa
317.75 K | 0.5801 kPa
320.01 K | 0.6665 kPa
320.07 K | 0.6684 kPa
320.13 K | 0.6684 kPa
322.5 K | 0.769 kPa
322.52 K | 0.7718 kPa
322.56 K | 0.7724 kPa
324.84 K | 0.8831 kPa
324.89 K | 0.8852 kPa
324.93 K | 0.8864 kPa
327.28 K | 1.015 kPa
327.32 K | 1.015 kPa
327.36 K | 1.016 kPa
